From US7892826B2, “Human cell clones having an endogeneous urotensin II receptor” (Janssen Pharmaceutica N.V., priority 2005, dated 2011)
Bridge positions count the residues as written; N and C are the ends. Square brackets hold non-standard residues; d marks the D form. Peptide text beside a SMILES is read from it. Pen = CC(C)(S)[C@H](N)C(=O)O; Orn = NCCC[C@H](N)C(=O)O

How the values were obtained:
[1] = target: T1, endogeneous urotensin II receptor (UT receptor) in 6D9 cells (Homo sapiens, UniProt Q9UKP6); experiment: Calcium mobilization assay (FLIPR, Calcium 3 dye) in 6D9 cells; type: cell-based; conditions: 10 nM or 30 nM U-II (FIG. 6)
T1 construct: endogenous in cells; host or cells: 6D9 (ATCC PTA-7749), sub-clone of human rhabdomyosarcoma line SJRH30 (ATCC CRL-2061)
T1 sequence (Q9UKP6 1-389): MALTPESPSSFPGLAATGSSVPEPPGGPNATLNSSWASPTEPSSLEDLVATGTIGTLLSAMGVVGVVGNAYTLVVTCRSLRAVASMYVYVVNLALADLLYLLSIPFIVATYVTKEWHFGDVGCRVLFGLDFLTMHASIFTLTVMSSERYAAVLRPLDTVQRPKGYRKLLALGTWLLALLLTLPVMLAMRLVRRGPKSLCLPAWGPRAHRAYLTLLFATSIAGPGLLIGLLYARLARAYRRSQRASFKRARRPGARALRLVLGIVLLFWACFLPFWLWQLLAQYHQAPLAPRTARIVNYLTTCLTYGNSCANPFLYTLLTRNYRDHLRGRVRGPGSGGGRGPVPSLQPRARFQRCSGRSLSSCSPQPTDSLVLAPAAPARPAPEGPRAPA
Method: Calcium mobilization was performed using FLIPR and Calcium 3, a non-wash Ca^2+ dye. Unlike the conventional Ca^2+ dye such as Fluo-3, Fluo-4, and Fura-2/AM, etc., the non-wash Ca^2+ dye was formulated to incorporate extracellular fluorescence quenchers and avoid the need to wash away extracellular Ca^2+ dye after loading the cells with the dye (Monteith and Bird, 2005, supra).
Cells were plated into 96 or 384 well plates and were incubated at 37° C. After the incubation, the growth medium was removed and replaced with HBSS (Hanks Balanced salt solution #21-023-CV, Mediatech, Inc, Herndon, Va.) containing Calcium 3 dye with probenecid.
In addition, the cells survived in cultures for over 3 months (17 passages) and were still responsive to U-II (FIG. 4).

[2] = target: T1, endogeneous urotensin II receptor (UT receptor) in 6D9 cells; experiment: 384-well FLIPR high throughput calcium mobilization assay in 6D9 cells; type: cell-based; conditions: 384-format
Method: Calcium mobilization was performed using FLIPR and Calcium 3, a non-wash Ca^2+ dye. Unlike the conventional Ca^2+ dye such as Fluo-3, Fluo-4, and Fura-2/AM, etc., the non-wash Ca^2+ dye was formulated to incorporate extracellular fluorescence quenchers and avoid the need to wash away extracellular Ca^2+ dye after loading the cells with the dye (Monteith and Bird, 2005, supra). Cells were plated into 96 or 384 well plates and were incubated at 37° C. After the incubation, the growth medium was removed and replaced with HBSS (Hanks Balanced salt solution #21-023-CV, Mediatech, Inc, Herndon, Va.) containing Calcium 3 dye with probenecid. […] This Example teaches a high throughput approach using FLIPR on a 384-well format. […] Various factors of the FLIPR assay had been tested to minimize the measure variability.

Dose dependence of response in HTS calcium mobilization assay [2]	Compound	Block of calcium mobilization coupled to U-II stimulation [1]
dose dependent responses	CC(C)[C@H](NC(=O)[C@@H]1CSSC(C)(C)[C@H](NC(=O)[C@@H](N)CC(=O)O)C(=O)N[C@@H](Cc2ccccc2)C(=O)N[C@H](Cc2c[nH]c3ccccc23)C(=O)N[C@@H](CCCN)C(=O)N[C@@H](Cc2ccc(O)cc2)C(=O)N1)C(=O)O [Urantide] (H-D[Pen]F[dW][Orn]YCV-OH; disulfide 2-7)	blocked the calcium mobilization coupled to U-II stimulation
dose dependent responses	CC(C)[C@H](NC(=O)[C@@H]1CSSC[C@H](NC(=O)[C@H](CC(=O)O)NC(=O)[C@@H]2CCCN2C(=O)[C@@H](NC(=O)[C@@H](N)CCC(=O)O)[C@@H](C)O)C(=O)N[C@@H](Cc2ccccc2)C(=O)N[C@@H](Cc2c[nH]c3ccccc23)C(=O)N[C@@H](CCCCN)C(=O)N[C@@H](Cc2ccc(O)cc2)C(=O)N1)C(=O)O [hU-II, SEQ ID NO: 2, ETPDCFWKYCV]	
